Test results reported in PMC8231556, “Inhibiting Endothelial Cell Function in Normal and Tumor Angiogenesis Using BMP Type I Receptor Macrocyclic Kinase Inhibitors” (Cancers, 2021).

Assays:
[1] = system: Tg (fli:EGFP) zebrafish embryos; experiment: Zebrafish DLAV and ISV formation; assay type: in vivo; settings: 0.5 µM, 20 h
Method: The Tg (fli:EGFP) zebrafish embryos were collected, and embryos with the same development stage (around 2.5 hpf) were selected. The eggs were randomly separated into different groups, and each group contained at least 20 embryos. The embryos were exposed to egg water containing 0.5 µM compounds or vehicle control (equal amount of DMSO) for 20 h at 28 °C. Next, all the eggs were dechorionated under the microscope using tweezers. The zebrafish embryos were fixed in 4% paraformaldehyde (PFA) for 2 h at room temperature and stored at 4 °C in phosphate-buffered saline (PBS). The entire zebrafish embryo was imaged with an Andor Dragonfly 500 spinning disk confocal (Oxford Instruments, Abingdon, UK) using a 488 nm laser. Five embryos in each group were randomly selected and scanned. The zebrafish vasculature formation of DLAV and ISV after 20 h treatment with compounds was quantified using ImageJ as previously described. The experiments were repeated twice with similar results.

[2] = target: T1, AKT1 (Homo sapiens, UniProt P31749); experiment: radiometric kinase profiling (33 PanQinase); assay type: biochemical; settings: read-out: Inhibitory effect (%) AKT1
T1 construct: purchased Proqinase, Germany
T1 sequence (P31749 whole entry): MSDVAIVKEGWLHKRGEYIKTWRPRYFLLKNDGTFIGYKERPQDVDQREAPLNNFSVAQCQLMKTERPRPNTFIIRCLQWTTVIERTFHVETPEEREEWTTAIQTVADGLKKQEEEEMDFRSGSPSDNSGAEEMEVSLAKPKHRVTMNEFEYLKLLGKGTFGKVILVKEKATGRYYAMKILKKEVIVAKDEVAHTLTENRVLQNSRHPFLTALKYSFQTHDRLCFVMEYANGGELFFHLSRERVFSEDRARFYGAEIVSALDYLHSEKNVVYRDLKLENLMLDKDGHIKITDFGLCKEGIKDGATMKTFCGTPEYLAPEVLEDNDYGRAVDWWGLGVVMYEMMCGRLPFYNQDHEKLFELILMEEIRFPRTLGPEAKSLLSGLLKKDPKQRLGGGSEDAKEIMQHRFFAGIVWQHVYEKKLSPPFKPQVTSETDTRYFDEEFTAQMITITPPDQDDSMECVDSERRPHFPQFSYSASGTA
Method: (§1) The kinase inhibition profile of the compounds was determined by testing 96 protein kinases’ activity using a radiometric protein kinase assay (33 PanQinase® Activity Assay, Proqinase, Germany). In brief, 10 µL of non-radioactive ATP solution (in H2O), 25 µL of assay buffer/[γ-33 P]-ATP mixture, 5 µL of 0.1 μM the tested compound in 10% DMSO and 10 µL of enzyme/substrate were mixed in 96-well FlashPlatesTM (Perkin Elmer, Boston, MA, USA). The reaction was conducted at 30 °C for 60 min. To stop the reaction, 50 µL of 2% (v/v) H3PO4 was added into the protein kinase reaction cocktails. After which, with 200 µL 0.9% (w/v) NaCl twice, the incorporation of ^33 Pi (counting of “cpm”) was determined with a microplate scintillation counter (Wallac Microbeta, Boston, MA, USA). All protein kinase assays were performed using a BeckmanCoulter Biomek 2000/SL robotic system (Brea, CA, USA). The residual activity (in %) for each compound was normalized to 100% enzyme activity (untreated control) and background (negative control).

[3] = target: T2, DNAPK (Homo sapiens, UniProt P78527); experiment: radiometric kinase profiling (33 PanQinase); assay type: biochemical; settings: read-out: Inhibitory effect (%) DNAPK
T2 construct: purchased Proqinase, Germany
Method: as §1

[4] = target: T3, MAP3K8 (Homo sapiens, UniProt P41279); experiment: radiometric kinase profiling (33 PanQinase); assay type: biochemical; settings: read-out: Inhibitory effect (%) MAP3K8
T3 construct: purchased ProQinase (33PanQinase Activity Assay)
T3 sequence (P41279 whole entry): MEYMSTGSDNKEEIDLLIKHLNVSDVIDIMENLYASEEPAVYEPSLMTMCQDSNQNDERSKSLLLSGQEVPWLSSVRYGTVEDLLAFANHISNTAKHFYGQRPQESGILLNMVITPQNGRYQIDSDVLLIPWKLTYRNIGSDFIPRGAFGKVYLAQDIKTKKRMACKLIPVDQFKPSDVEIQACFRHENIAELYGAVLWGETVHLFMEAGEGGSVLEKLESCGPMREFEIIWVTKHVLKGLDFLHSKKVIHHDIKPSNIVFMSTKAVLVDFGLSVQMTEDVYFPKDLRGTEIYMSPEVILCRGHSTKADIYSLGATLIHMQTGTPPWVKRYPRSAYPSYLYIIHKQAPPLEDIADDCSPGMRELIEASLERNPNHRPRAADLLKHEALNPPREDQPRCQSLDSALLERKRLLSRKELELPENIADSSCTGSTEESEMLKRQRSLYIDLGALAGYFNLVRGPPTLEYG
Method: as §1

[5] = target: T4, RPS6KB1 (Homo sapiens, UniProt P23443); experiment: radiometric kinase profiling (33 PanQinase); assay type: biochemical; settings: read-out: Inhibitory effect (%) RPS6KB1
T4 construct: purchased ProQinase (33PanQinase Activity Assay)
T4 sequence (P23443 whole entry): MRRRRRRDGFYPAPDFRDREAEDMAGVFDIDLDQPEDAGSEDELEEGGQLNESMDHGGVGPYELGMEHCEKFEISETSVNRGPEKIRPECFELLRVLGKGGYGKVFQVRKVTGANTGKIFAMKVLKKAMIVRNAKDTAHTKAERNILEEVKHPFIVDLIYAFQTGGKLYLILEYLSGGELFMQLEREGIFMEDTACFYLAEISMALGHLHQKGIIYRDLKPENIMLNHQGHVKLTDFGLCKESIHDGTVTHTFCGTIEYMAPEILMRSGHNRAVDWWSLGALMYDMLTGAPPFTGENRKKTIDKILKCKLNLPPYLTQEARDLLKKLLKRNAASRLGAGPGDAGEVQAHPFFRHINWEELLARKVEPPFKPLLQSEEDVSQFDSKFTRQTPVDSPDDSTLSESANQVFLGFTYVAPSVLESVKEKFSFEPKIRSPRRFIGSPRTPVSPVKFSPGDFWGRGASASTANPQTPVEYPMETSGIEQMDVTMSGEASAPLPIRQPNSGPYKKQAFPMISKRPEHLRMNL
Method: as §1

[6] = target: T5, CSNK1A1 (Homo sapiens, UniProt P48729); experiment: radiometric kinase profiling (33 PanQinase); assay type: biochemical; settings: read-out: Inhibitory effect (%) CSNK1A1
T5 construct: purchased Proqinase, Germany
T5 sequence (P48729 whole entry): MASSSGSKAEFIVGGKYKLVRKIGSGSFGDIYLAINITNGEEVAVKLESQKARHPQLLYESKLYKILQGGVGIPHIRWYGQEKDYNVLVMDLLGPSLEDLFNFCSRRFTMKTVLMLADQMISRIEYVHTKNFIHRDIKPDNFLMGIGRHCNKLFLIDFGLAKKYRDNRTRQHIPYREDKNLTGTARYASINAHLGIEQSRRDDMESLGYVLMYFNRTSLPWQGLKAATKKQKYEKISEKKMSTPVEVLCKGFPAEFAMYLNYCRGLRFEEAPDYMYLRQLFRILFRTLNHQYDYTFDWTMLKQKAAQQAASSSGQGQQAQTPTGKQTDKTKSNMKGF
Method: as §1

[7] = target: T6, JAK1 (Homo sapiens, UniProt P23458); experiment: radiometric kinase profiling (33 PanQinase); assay type: biochemical; settings: read-out: Inhibitory effect (%) JAK1
T6 construct: purchased ProQinase (33PanQinase Activity Assay)
T6 sequence (P23458 whole entry): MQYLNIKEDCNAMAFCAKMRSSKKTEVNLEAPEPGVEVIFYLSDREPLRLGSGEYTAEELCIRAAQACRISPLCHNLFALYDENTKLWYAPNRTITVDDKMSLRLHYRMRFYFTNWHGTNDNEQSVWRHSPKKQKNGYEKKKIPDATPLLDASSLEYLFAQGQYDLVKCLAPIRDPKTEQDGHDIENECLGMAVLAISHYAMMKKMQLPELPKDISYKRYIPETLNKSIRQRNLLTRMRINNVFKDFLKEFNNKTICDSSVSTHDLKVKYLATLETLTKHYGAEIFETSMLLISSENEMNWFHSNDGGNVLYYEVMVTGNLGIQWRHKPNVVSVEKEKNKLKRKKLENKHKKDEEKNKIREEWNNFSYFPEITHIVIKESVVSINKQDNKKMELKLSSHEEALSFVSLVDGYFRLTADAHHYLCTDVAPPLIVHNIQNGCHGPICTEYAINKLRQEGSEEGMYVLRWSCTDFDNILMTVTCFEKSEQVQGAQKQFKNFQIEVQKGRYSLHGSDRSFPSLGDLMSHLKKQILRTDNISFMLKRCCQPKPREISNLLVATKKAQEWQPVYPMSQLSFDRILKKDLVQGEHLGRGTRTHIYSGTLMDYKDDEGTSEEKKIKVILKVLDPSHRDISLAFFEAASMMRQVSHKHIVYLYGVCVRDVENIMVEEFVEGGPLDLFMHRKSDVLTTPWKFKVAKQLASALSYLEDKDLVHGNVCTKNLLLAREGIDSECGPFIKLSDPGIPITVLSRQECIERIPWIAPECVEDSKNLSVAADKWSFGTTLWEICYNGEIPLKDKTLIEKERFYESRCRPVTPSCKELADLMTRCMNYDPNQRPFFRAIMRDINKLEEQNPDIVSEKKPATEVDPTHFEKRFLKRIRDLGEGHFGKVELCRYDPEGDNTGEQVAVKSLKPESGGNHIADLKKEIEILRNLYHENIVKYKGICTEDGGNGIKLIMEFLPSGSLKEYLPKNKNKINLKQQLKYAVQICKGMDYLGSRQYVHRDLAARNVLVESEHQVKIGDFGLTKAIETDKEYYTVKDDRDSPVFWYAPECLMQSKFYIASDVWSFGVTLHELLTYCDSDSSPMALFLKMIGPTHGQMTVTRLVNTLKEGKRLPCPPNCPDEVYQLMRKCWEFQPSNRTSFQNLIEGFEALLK
Method: as §1

[8] = target: T7, CHEK1 (Homo sapiens, UniProt O14757); experiment: radiometric kinase profiling (33 PanQinase); assay type: biochemical; settings: read-out: Inhibitory effect (%) CHEK1
T7 construct: purchased Proqinase, Germany
T7 sequence (O14757 1-476): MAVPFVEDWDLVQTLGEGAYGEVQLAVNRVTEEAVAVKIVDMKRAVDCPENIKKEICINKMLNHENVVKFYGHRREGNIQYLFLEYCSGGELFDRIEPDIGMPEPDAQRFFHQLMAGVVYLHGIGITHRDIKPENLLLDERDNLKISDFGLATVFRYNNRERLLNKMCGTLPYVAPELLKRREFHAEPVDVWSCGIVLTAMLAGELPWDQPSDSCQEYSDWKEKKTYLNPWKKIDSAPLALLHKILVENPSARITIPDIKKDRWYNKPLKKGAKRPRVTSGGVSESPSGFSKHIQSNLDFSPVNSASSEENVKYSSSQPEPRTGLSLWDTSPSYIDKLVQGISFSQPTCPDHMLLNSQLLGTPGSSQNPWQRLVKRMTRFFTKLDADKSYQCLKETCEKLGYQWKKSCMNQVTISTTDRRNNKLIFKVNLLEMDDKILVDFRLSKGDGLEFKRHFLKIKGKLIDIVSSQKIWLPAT
Method: as §1

[9] = target: T8, MAPKAPK2 (Homo sapiens, UniProt P49137); experiment: radiometric kinase profiling (33 PanQinase); assay type: biochemical; settings: read-out: Inhibitory effect (%) MAPKAPK2
T8 construct: purchased ProQinase (33PanQinase Activity Assay)
T8 sequence (P49137 whole entry): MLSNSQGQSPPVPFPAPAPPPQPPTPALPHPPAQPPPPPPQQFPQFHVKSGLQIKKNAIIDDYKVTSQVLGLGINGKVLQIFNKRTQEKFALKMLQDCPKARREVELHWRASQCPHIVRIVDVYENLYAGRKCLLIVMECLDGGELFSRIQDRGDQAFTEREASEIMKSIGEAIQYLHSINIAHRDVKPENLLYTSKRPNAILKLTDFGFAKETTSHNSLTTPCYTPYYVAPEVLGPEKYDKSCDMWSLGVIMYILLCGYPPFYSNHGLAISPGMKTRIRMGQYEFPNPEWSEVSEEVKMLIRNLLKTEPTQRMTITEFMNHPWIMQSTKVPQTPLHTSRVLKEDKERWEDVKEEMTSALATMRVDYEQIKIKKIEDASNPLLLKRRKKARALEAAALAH
Method: as §1

[10] = system: constitutively active ALK1 (caALK1); experiment: caALK1-induced BRE-Luc reporter activity in C2C12 cells; assay type: cell-based; settings: for inhibition of caALK1 compared to caALK2 (BRE-Luc): C2C12 cells
From the text: To further investigate and validate the selective inhibitory effects of OD16 and OD29 toward BMP9/ALK1 and BMP6/ALK2 signaling, we transfected C2C12 myoblast cells with constitutively active mutant ALK1 and ALK2 (caALK1 and caALK2). These constitutively active receptors signal in the absence of exogenous ligands and allow for a more direct assessment of inhibitory effects that are elicited by kinase receptor inhibitors. […]
Figure S4. OD29 and OD16 are two small molecule BMP type I receptors kinase inhibitors in C2C12 cells. Effects of vehicle control (DMSO), LDN−193189, OD16 or OD29 on BRE transcriptional luciferase reporter activity induced by the ectopic expression of caALK1 (A) or caALK2 (B) in C2C12 cells. Cells were incubated with the inhibitors in three different con-centrations (0.1 μM, 0.5 μM or 1 μM) for 16 hours. Representative results from three biologically independent experiments are shown as mean ± SD. NS, not significant; * p < 0.05, ** p < 0.005; *** p < 0.001.

[11] = system: HUVECs; experiment: Chemotactic invasion assay; assay type: cell-based, human; settings: 0.5 µM, towards full medium with 20% FBS
Method: The invasion potential of ECs was investigated using the chemotactic invasion assay, according to the IncuCyte instruction manual. Briefly, the top layer of an IncuCyte ClearView 96-well chemotaxis plate (4582, Essen Bioscience) was coated with 1% gelatin for 30 min. One thousand five hundred HUVEC cells/well were seeded on the gelatin-coated top plate and covered with 60 µL M199 medium with 1% FBS containing 0.5 µM of the indicated compounds or vehicle control (DMSO). Then 200 µL/well of M199 supplemented with 20% FBS, 100 IU/mL penicillin/streptomycin, 0.01 IU/mL Heparine, and BPE with 0.5 µM of the indicated compounds was added to the bottom plate. The plate was placed in the IncuCyte, and whole well images of both top and bottom membranes were captured every 4 h for one day using the IncuCyte Chemotaxis imaging protocol. Finally, the top and bottom cell areas were quantified with the instrument’s software using automated algorithms. The ECs invasive behavior was presented as total bottom cell area normalized to the initial top cell area. All the experiments were repeated at least three times, and representative results are shown.

For `CN1CCC(=O)NCCNc2ccn3ncc(c3n2)-c2cccc(c2)C1` [OD29], the “effect on DLAV and ISV formation (images)” value (“effect … (images)” below) [1] was “strong negative impact”, the “effect on total vessel length and number of junctions (DLAV and ISV, quantified)” value (“effect on total vessel length and number” for short) [1] was “significantly inhibited” and the inhibition at 0.1 µM [2] was -2.83%. For the same compound, the inhibition at 0.1 µM [3] was 12.9%, the inhibition at 0.1 µM [4] was -5.03% and the inhibition at 0.1 µM [5] was -3.52%. The inhibition at 0.1 µM [6] was -2.21%, the inhibition at 0.1 µM [7] was -3.74% and the inhibition at 0.1 µM [8] was 4.25%. For the same compound, the inhibition at 0.1 µM [9] was -4.8%, the “inhibition of caALK1 compared to caALK2 (BRE-Luc)” value [10] was “higher sensitivity and more inhibitory potential against caALK1 compared to caALK2” and the “effect on HUVEC chemotactic invasion” value [11] was “similarly blocked”.
With `CNC(=O)c1ccccc1Sc1ccc2c(/C=C/c3ccccn3)n[nH]c2c1` [Axitinib, reference compound] the “effect … (images)” value [1] was “strong defects in both DLAV and ISV formation”, the “effect on total vessel length and number” value [1] was “strongly inhibited” and the “effect on HUVEC chemotactic invasion” value [11] was “significantly compromised”.
For `CN1CCc2cccc(c2)Nc2nccc(n2)N2CCCc3cc(ccc32)C1` [OD16], the “effect on DLAV formation” value [1] was “strongly delayed”, the “effect on ISV development” value [1] was “slightly inhibited” and the “effect on total vessel length and number” value [1] was “significantly inhibited”. It also gave an inhibition at 0.1 µM [2] of -4.07%, an inhibition at 0.1 µM [3] of -8.88% and an inhibition at 0.1 µM [4] of -16.9%. The inhibition at 0.1 µM [5] was -15%, the inhibition at 0.1 µM [6] was 0.99% and the inhibition at 0.1 µM [7] was 23.1%. The inhibition at 0.1 µM [8] was 0.85%, the inhibition at 0.1 µM [9] was -14.6% and the “inhibition of caALK1 compared to caALK2 (BRE-Luc)” value [10] was “higher sensitivity and more inhibitory potential against caALK1 compared to caALK2”. For the same compound, the “effect on HUVEC chemotactic invasion” value [11] was “similarly blocked”.
For `c1ccc2c(-c3cnn4cc(-c5ccc(N6CCNCC6)cc5)cnc34)ccnc2c1` [LDN-193189, reference compound], the “effect … (images)” value [1] was “did not exhibit apparent defects”, the “effect on total vessel length and number” value [1] was “showed no effects” and the inhibition at 0.1 µM [2] was 16.1%. It also gave an inhibition at 0.1 µM [3] of -29.6%, an inhibition at 0.1 µM [4] of -10.3% and an inhibition at 0.1 µM [5] of 13%. It also gave an inhibition at 0.1 µM [6] of -3.63%, an inhibition at 0.1 µM [7] of -10.9% and an inhibition at 0.1 µM [8] of -34.6%. The inhibition at 0.1 µM [9] was 0.06%, the “inhibition of caALK1 compared to caALK2 (BRE-Luc)” value [10] was “No difference in inhibition between ALK1 and ALK2” and the “effect on caALK1-induced BRE-Luc reporter activity” value ([10]; C2C12 cells, 0.1, 0.5 or 1 μM, 16 hours) was “in a dose-dependent manner attenuated”. The “effect on HUVEC chemotactic invasion” value [11] was “significantly compromised”.
